# Tests used:
# Assay type in all cases: cell-based
# THRα = molecular target: T1, THRα (Homo sapiens, UniProt P10827); assay: Gal4-hybrid reporter gene assay THRα; conditions: n ≥ 3; for fold act. THRα: mean, Fig. 8; for EC50: HEK293T, Gal4-hybrid reporter, Inactive = tested 1–300 μM; for EC50 / max. fold activation THRα: mean ± S.E.M.; for max. fold activation THRα: maximum reporter activation vs DMSO (0.1%) treated cells
# T1 construct: expressed in transfected cells; host or cells: HEK293T
# T1 sequence (P10827 128-410 isoform P10827-2 limits assumed): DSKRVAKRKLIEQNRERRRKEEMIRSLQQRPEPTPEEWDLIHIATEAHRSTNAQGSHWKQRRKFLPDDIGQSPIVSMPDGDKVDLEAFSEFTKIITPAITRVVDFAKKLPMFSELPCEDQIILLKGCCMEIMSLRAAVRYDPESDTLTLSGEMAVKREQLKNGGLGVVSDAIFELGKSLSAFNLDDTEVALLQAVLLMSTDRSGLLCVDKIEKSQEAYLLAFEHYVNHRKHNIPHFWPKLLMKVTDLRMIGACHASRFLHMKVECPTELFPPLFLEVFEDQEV
# Method: (§1) NR modulation was determined as described previously[45] in Gal4 hybrid reporter gene assays in HEK293T cells (German Collection of Microorganisms and Cell Culture GmbH, DSMZ) using pFR-Luc (Stratagene, La Jolla, CA, USA; reporter), pRL-SV40 (Promega, Madison, WI, USA; internal control) and the hybrid receptor clones pFA-CMV-hTHRα-LBD,[46] pFA-CMV-hPPARγ-LBD,[47] pFA-CMV-hFXR-LBD,[48] and pFA-CMV-hRXRα-LBD,[49] coding for the hinge region and ligand binding domain of the canonical isoform of the respective NR. Cells were cultured in Dulbecco's modified Eagle's medium (DMEM), high glucose supplemented with 10% fetal calf serum (FCS), sodium pyruvate (1 mM), penicillin (100 U mL^−1), and streptomycin (100 μg mL^−1) at 37 °C and 5% CO2 and seeded in 96-well plates (3 × 10^4 cells per well). After 24 h, medium was changed to Opti-MEM without supplements and cells were transiently transfected using Lipofectamine LTX reagent (Invitrogen, Carlsbad, CA, USA) according to the manufacturer's protocol. Five hours after transfection, cells were incubated with the test compounds in Opti-MEM supplemented with penicillin (100 U mL^−1), streptomycin (100 μg mL^−1) and 0.1% DMSO for 16 h before luciferase activity was measured using the Dual-Glo Luciferase Assay System (Promega) according to the manufacturer's protocol on a Tecan Spark luminometer (Tecan Deutschland GmbH, Crailsheim, Germany). Firefly luminescence was divided by Renilla luminescence and multiplied by 1000 resulting in relative light units (RLU) to normalize for transfection efficiency and cell growth. Fold activation was obtained by dividing the mean RLU of test compound by the mean RLU of the untreated control. All samples were tested in at least three biologically independent experiments in duplicates. For dose–response curve fitting and calculation of EC50 values, the equation “[agonist] vs. response − variable slope (four parameters)” was used in GraphPad Prism (version 7.00, GraphPad Software, La Jolla, CA, USA). For selectivity profiling, the hybrid reporter gene assay was performed with Gal4 fusion receptor plasmids for RARα, PPARα, PPARδ, VDR, CAR and LXRα. The following reference agonists were used: triiodothyronine (1 μM, THR), all-trans retinoic acid (1 μM, RAR), GW7647 (1 μM, PPARα), pioglitazone (1 μM, PPARγ), L165041 (1 μM, PPARδ), calcitriol (1 μM, VDR), CITCO (1 μM, CAR), T0901317 (1 μM, LXR), GW4064 (1 μM, FXR), bexarotene (1 μM, RXR).
# FXR = molecular target: T2, FXR (Homo sapiens, UniProt Q96RI1); assay: Gal4-hybrid reporter gene assay FXR; conditions: n ≥ 3; for fold act. FXR: mean, Fig. 8; for EC50 FXR / EC50: HEK293T, Gal4-hybrid reporter, Inactive = tested 1–300 μM; for EC50 FXR / EC50 / max. fold activation FXR: mean ± S.E.M.; for max. fold activation FXR: maximum reporter activation vs DMSO (0.1%) treated cells
# T2 construct: expressed in transfected cells; host or cells: HEK293T
# T2 sequence (Q96RI1 262-486 limits assumed): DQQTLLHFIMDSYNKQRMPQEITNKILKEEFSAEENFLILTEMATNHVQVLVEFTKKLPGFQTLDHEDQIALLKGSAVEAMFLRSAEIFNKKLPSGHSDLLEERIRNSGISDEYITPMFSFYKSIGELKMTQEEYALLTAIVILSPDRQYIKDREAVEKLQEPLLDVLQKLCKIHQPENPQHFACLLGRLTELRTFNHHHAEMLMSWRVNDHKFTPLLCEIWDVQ
# Method: as §1
# RXRα = molecular target: T3, RXRα (Homo sapiens, UniProt P19793); assay: Gal4-hybrid reporter gene assay RXRα; conditions: n ≥ 3; for fold act. RXRα: mean, Fig. 8; for EC50 RXRα / EC50: HEK293T, Gal4-hybrid reporter, Inactive = tested 1–300 μM; for EC50 RXRα / EC50 / max. fold activation RXRα: mean ± S.E.M.; for max. fold activation RXRα: maximum reporter activation vs DMSO (0.1%) treated cells
# T3 construct: expressed in transfected cells; host or cells: HEK293T
# T3 sequence (P19793 227-458 limits assumed): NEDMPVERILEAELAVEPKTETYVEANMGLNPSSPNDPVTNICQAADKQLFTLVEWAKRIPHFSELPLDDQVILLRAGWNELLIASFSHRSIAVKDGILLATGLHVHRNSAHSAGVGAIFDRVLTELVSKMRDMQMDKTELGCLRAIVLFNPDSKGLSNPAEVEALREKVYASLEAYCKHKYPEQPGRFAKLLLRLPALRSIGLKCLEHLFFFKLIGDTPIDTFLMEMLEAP
# Method: as §1
# PPARδ = molecular target: T4, PPARδ (Homo sapiens, UniProt Q03181); assay: Gal4-hybrid reporter gene assay PPARδ (selectivity); conditions: mean, n ≥ 3, Fig. 8
# T4 construct: expressed in transfected cells; host or cells: HEK293T
# T4 sequence (Q03181 138-441 limits assumed): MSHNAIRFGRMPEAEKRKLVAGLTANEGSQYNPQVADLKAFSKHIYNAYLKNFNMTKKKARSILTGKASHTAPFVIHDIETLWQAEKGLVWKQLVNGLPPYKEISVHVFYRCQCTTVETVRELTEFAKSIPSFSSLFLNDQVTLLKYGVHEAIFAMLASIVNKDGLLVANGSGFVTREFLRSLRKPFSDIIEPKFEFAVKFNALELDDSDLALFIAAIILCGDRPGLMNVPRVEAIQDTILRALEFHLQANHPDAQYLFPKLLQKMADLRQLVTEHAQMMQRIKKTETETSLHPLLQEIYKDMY
# Method: as §1
fold act. THRα (THRα; 30 μM) [fold],EC50 (THRα) [µM],max. fold activation THRα (THRα),fold act. FXR (FXR; 30 μM) [fold],EC50 FXR (FXR),fold act. RXRα (RXRα; 30 μM) [fold],EC50 RXRα (RXRα),fold act. PPARδ (PPARδ; 30 μM) [fold],fold act. THRα (THRα; 40 μM) [fold],fold act. FXR (FXR; 40 μM) [fold],EC50 (FXR) [µM],max. fold activation FXR (FXR),fold act. RXRα (RXRα; 40 μM) [fold],EC50 (RXRα) [µM],max. fold activation RXRα (RXRα),fold act. PPARδ (PPARδ; 40 μM) [fold],fold act. THRα (THRα; 10 μM) [fold],fold act. FXR (FXR; 10 μM) [fold],fold act. RXRα (RXRα; 10 μM) [fold],fold act. PPARδ (PPARδ; 10 μM) [fold],SMILES
15,16 ± 7,(14.8 ± 1.0-fold),1,Inactive,1,Inactive,3,–,–,–,–,–,–,–,–,–,–,–,–,"O=C(O)/C=C/C(=O)c1ccc(-c2ccccc2)cc1 [4.7, (E)-4-([1,1′-Biphenyl]-4-yl)-4-oxobut-2-enoic acid]"
–,39 ± 1,(28 ± 1-fold),–,–,–,–,–,16,6,26 ± 4,(7 ± 1-fold),5,26 ± 3,(4.5 ± 0.5-fold),3,–,–,–,–,"O=C(O)/C=C/C(=O)c1ccc2ccccc2c1 [4.8, (E)-4-Oxo-4-(naphthalen-2-yl)but-2-enoic acid]"
–,1.5 ± 0.2,(3.7 ± 0.2-fold),–,–,–,–,–,–,–,1.3 ± 0.3,(6.4 ± 0.3-fold),–,0.9 ± 0.2,(4.3 ± 0.5-fold),–,4,6,4,2,"CCOc1ccc(-c2cc(C(=O)O)co2)cc1 [3.1, 5-(4-Ethoxyphenyl)furan-3-carboxylic acid]"
2,43 ± 3,(4.2 ± 0.3-fold),1,Inactive,1,Inactive,1,–,–,–,–,–,–,–,–,–,–,–,–,"O=C(O)/C=C/C(=O)c1ccc(Cl)cc1Cl [4.6, (E)-4-Oxo-4-(2,4-dichlorophenyl)but-2-enoic acid]"

# — PMC12352620, “Fragment-based discovery of dual ligand pharmacophores for lipid-sensing transcription factors for designed polypharmacology” (RSC Medicinal Chemistry, 2025)
